Data reported in ChEMBL document CHEMBL3351373, “Five-membered heteroaromatic ring fused-pyrimidine derivatives: design, synthesis, and hedgehog signaling pathway inhibition study” (Bioorg Med Chem Lett, 2014).

Assay: Inhibition of hedgehog receptor signaling pathway in mouse NIH3T3 cells transfected with Gli-reporter gene by luciferase reporter gene assay
Format: cell-based

SMILES | IC50 [nM]
Cc1ccc(CN2CCN(C)CC2)cc1NC(=O)c1ccc(Nc2nc(-c3ccc(OC(F)(F)F)cc3)c3nc[nH]c3n2)cc1 | 0.9
Cc1ccc(CN2CCN(C)CC2)cc1NC(=O)c1ccc(Nc2nc(-c3ccc(OC(F)(F)F)cc3)c3ccsc3n2)cc1 | 3.36
Cc1ccc(CN2CCN(C)CC2)cc1NC(=O)c1ccc(Nc2nc(-c3ccc(OC(F)(F)F)cc3)c3c(ccn3C)n2)cc1 | 5.1
O=C1Cc2cc(Nc3nc(-c4ccc(OC(F)(F)F)cc4)c4nc[nH]c4n3)ccc2N1 | > 1000
Cc1ccc(OCCN2CCOCC2)cc1NC(=O)c1ccc(Nc2nc(-c3ccc(OC(F)(F)F)cc3)c3nc[nH]c3n2)cc1 | 2.98
FC(F)(F)Oc1ccc(-c2nc(Nc3ccc4[nH]ncc4c3)nc3[nH]cnc23)cc1 | 399
Cc1ccc(CN2CCOCC2)cc1NC(=O)c1ccc(Nc2nc(-c3ccc(OC(F)(F)F)cc3)c3cc[nH]c3n2)cc1 | 6.04
Cc1ccc(CN2CCOCC2)cc1NC(=O)c1ccc(Nc2nc(-c3ccc(OC(F)(F)F)cc3)c3nc[nH]c3n2)cc1 | 0.69
Cc1ccc(CN2CCOCC2)cc1NC(=O)c1ccc(Nc2nc(-c3ccc(OC(F)(F)F)cc3)c3ncn(C)c3n2)cc1 | 0.35
CS(=O)(=O)c1ccc(C(=O)Nc2ccc(Cl)c(-c3ccccn3)c2)c(Cl)c1 [VISMODEGIB] | 7.17

Continued, values first:

IC50 [nM] | SMILES
1.13 | Cc1ccc(CN2CCOCC2)cc1NC(=O)c1ccc(Nc2nc(-c3ccc(OC(F)(F)F)cc3)c3occc3n2)cc1
116 | Cc1cccc(C)c1NC(=O)c1ccc(Nc2nc(-c3ccc(OC(F)(F)F)cc3)c3ncn(C)c3n2)cc1
12.8 | Cc1cccc(C)c1NC(=O)c1ccc(Nc2nc(-c3ccc(OC(F)(F)F)cc3)c3[nH]ccc3n2)cc1
1.39 | Cc1ccc(CN2CCN(C)CC2)cc1NC(=O)c1ccc(Nc2nc(-c3ccc(OC(F)(F)F)cc3)c3[nH]ccc3n2)cc1
0.6 | Cc1cccc(C)c1NC(=O)c1ccc(Nc2nc(-c3ccc(OC(F)(F)F)cc3)c3ccsc3n2)cc1
3.61 | Cc1cccc(C)c1NC(=O)c1ccc(Nc2nc(-c3ccc(OC(F)(F)F)cc3)c3sccc3n2)cc1
1.78 | Cc1cccc(C)c1NC(=O)c1ccc(Nc2nc(-c3ccc(OC(F)(F)F)cc3)c3occc3n2)cc1
9.39 | Cc1ccc(CN2CCN(C)CC2)cc1NC(=O)c1ccc(Nc2nc(-c3ccc(OC(F)(F)F)cc3)c3sccc3n2)cc1
1.17 | Cc1cccc(C)c1NC(=O)c1ccc(Nc2nc(-c3ccc(OC(F)(F)F)cc3)c3c(ccn3C)n2)cc1
512 | Cc1cccc(C)c1NC(=O)c1ccc(Nc2nc(-c3ccc(OC(F)(F)F)cc3)c3nc[nH]c3n2)cc1
2.58 | Cc1cccc(C)c1NC(=O)c1ccc(Nc2nc(-c3ccc(OC(F)(F)F)cc3)c3ccn(C)c3n2)cc1
1.75 | Cc1ccc(CN2CCOCC2)cc1NC(=O)c1ccc(Nc2nc(-c3ccc(OC(F)(F)F)cc3)c3ccsc3n2)cc1
6.85 | Cc1cccc(C)c1NC(=O)c1ccc(Nc2nc(-c3ccc(OC(F)(F)F)cc3)c3cc[nH]c3n2)cc1
